# The source made the active and inactive calls. The calls are words filed in the database; no cut-off is given here.
# Columns and labels:
# Carbonic anhydrase 9 = Carbonic anhydrase 9 (Homo sapiens, UniProt Q16790)
# Description: Inhibition of Carbonic anhydrase 9 (unknown origin) using p-nitrophenyl acetate as substrate preincubated for 10 mins followed by substrate addition and measured after 30 mins by microplate reader method
# NCI-H23 = assay: Cytotoxicity against human NCI-H23 cells assessed as cell growth inhibition; assay type: functional, cell-based
# NCI/ADR-RES = assay: Cytotoxicity against human NCI/ADR-RES cells assessed as cell growth inhibition; assay type: functional, cell-based
# SK-OV-3 = assay: Cytotoxicity against human SK-OV-3 cells assessed as cell growth inhibition; assay type: functional, cell-based
# NCI-H522 = assay: Cytotoxicity against human NCI-H522 cells assessed as cell growth inhibition; assay type: functional, cell-based
# LOX IMVI = assay: Cytotoxicity against human LOX IMVI cells assessed as cell growth inhibition; assay type: functional, cell-based
# UACC-62 = assay: Cytotoxicity against human UACC-62 cells assessed as cell growth inhibition; assay type: functional, cell-based
# HT-29 [1] = assay: Cytotoxicity against human HT-29 assessed as mean growth inhibition; assay type: functional
# KM12 = assay: Cytotoxicity against human KM12 cells assessed as cell growth inhibition; assay type: functional, cell-based
# SR = assay: Cytotoxicity against human SR cells assessed as cell growth inhibition; assay type: functional, cell-based
# 786-0 = assay: Cytotoxicity against human 786-0 cells assessed as cell growth inhibition; assay type: functional, cell-based
# HOP-92 = assay: Cytotoxicity against human HOP-92 cells assessed as cell growth inhibition; assay type: functional, cell-based
# IGROV-1 = assay: Cytotoxicity against human IGROV-1 cells assessed as cell growth inhibition; assay type: functional, cell-based
# HCC 2998 = assay: Cytotoxicity against human HCC 2998 cells assessed as cell growth inhibition; assay type: functional, cell-based
# DU-145 = assay: Cytotoxicity against human DU-145 cells assessed as cell growth inhibition; assay type: functional, cell-based
# U-251 = assay: Cytotoxicity against human U-251 cells assessed as cell growth inhibition; assay type: functional, cell-based
# SF-295 = assay: Cytotoxicity against human SF-295 cells assessed as cell growth inhibition; assay type: functional, cell-based
# A498 = assay: Cytotoxicity against human A498 cells assessed as cell growth inhibition; assay type: functional, cell-based
# SK-MEL-28 = assay: Cytotoxicity against human SK-MEL-28 cells assessed as cell growth inhibition; assay type: functional, cell-based
# Autotaxin = Autotaxin (Homo sapiens, UniProt Q13822); assay: Inhibition of human NPP2 expressed in COS-7 cells using pNP-TMP as substrate preincubated for 10 mins followed by substrate addition and measured after 35 mins by microplate reader analysis; assay type: cell-based
# HCT-15 = assay: Cytotoxicity against human HCT-15 cells assessed as cell growth inhibition; assay type: functional, cell-based
# PC-3 = assay: Cytotoxicity against human PC-3 cells assessed as cell growth inhibition; assay type: functional, cell-based
# OVCAR-4 = assay: Cytotoxicity against human OVCAR-4 cells assessed as cell growth inhibition; assay type: functional, cell-based
# HCT-116 = assay: Cytotoxicity against human HCT-116 cells assessed as cell growth inhibition; assay type: functional, cell-based
# SK-MEL-5 = assay: Cytotoxicity against human SK-MEL-5 cells assessed as cell growth inhibition; assay type: functional, cell-based
# MDA-MB-468 = assay: Cytotoxicity against human MDA-MB-468 cells assessed as cell growth inhibition; assay type: functional, cell-based
# HL-60(TB) = assay: Cytotoxicity against human HL-60(TB) cells assessed as cell growth inhibition; assay type: functional, cell-based
# Malme-3M = assay: Cytotoxicity against human Malme-3M cells assessed as cell growth inhibition; assay type: functional, cell-based
# SNB-75 = assay: Cytotoxicity against human SNB-75 cells assessed as cell growth inhibition; assay type: functional, cell-based
# ACHN = assay: Cytotoxicity against human ACHN cells assessed as cell growth inhibition; assay type: functional, cell-based
# COLO 205 = assay: Cytotoxicity against human COLO 205 cells assessed as cell growth inhibition; assay type: functional, cell-based
# TK-10 = assay: Cytotoxicity against human TK-10 cells assessed as cell growth inhibition; assay type: functional, cell-based
# [2] = target: Ectonucleotide pyrophosphatase/phosphodiesterase family member 1 (Homo sapiens, UniProt P22413); assay: Inhibition of human NPP1 expressed in COS-7 cells using pNP-TMP as substrate preincubated for 10 mins followed by substrate addition and measured after 35 mins by microplate reader analysis; assay type: cell-based
# Chain of Ectonucleotide pyrophosphatase/phosphodiesterase family member 1 (P22413 whole entry): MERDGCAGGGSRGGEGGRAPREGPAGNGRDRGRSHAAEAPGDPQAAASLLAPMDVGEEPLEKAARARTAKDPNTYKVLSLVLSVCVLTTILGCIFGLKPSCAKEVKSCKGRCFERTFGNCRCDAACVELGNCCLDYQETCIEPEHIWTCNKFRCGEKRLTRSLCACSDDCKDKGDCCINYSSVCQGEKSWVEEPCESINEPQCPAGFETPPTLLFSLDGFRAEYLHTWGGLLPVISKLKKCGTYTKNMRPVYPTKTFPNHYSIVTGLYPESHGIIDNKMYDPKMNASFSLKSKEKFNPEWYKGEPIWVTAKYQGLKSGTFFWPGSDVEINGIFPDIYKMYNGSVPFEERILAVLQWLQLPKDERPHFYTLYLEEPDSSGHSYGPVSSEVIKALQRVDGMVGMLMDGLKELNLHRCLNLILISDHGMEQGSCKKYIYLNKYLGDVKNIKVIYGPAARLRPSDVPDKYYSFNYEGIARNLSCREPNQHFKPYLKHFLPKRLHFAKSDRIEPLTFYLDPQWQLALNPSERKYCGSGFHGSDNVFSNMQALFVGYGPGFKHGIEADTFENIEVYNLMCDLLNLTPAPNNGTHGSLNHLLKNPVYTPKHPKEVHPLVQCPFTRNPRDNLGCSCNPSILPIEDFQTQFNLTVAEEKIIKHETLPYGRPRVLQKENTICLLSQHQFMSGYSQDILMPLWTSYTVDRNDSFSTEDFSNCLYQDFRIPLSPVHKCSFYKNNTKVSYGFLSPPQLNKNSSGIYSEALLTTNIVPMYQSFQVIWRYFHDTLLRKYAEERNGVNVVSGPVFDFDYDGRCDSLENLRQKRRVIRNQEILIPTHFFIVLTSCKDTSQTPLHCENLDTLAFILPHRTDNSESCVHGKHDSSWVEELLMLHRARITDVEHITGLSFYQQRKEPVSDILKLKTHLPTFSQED
# HT-29 [3] = assay: Cytotoxicity against human HT-29 assessed as cell growth inhibition; assay type: functional, cell-based
# SF-539 = assay: Cytotoxicity against human SF-539 cells assessed as cell growth inhibition; assay type: functional, cell-based
# SW-620 = assay: Cytotoxicity against human SW620 cells assessed as cell growth inhibition; assay type: functional, cell-based
# [4] = target: Ectonucleotide pyrophosphatase/phosphodiesterase family member 3 (Homo sapiens, UniProt O14638); assay: Inhibition of human NPP3 expressed in COS-7 cells using pNP-TMP as substrate preincubated for 10 mins followed by substrate addition and measured after 35 mins by microplate reader analysis; assay type: cell-based
# Chain of Ectonucleotide pyrophosphatase/phosphodiesterase family member 3 (O14638 whole entry): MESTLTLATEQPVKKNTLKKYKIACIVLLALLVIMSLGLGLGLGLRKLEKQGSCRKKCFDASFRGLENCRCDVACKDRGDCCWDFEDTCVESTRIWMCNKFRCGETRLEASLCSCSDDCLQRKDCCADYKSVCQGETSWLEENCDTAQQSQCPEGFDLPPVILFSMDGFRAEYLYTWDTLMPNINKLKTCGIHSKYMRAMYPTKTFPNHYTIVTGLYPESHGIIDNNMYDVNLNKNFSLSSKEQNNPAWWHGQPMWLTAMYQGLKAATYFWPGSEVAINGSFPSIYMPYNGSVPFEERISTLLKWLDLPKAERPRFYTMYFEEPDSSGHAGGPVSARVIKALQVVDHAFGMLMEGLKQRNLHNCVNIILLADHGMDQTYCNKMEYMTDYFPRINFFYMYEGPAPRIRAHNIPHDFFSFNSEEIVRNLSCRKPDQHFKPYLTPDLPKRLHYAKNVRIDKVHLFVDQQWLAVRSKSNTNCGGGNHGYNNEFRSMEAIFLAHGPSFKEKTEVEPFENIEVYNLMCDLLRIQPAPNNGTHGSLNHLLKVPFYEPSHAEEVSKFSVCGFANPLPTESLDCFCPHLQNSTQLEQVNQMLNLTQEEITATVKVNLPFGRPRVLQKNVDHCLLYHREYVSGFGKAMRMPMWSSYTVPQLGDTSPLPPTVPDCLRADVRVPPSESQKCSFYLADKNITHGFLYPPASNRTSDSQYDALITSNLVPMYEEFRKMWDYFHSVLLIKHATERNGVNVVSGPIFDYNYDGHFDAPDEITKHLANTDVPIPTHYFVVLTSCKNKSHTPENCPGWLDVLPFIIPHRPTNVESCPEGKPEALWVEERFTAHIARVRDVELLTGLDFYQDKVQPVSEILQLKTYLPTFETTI
# MDA-MB-435 = assay: Cytotoxicity against human MDA-MB-435 cells assessed as cell growth inhibition; assay type: functional, cell-based
# BT-549 = assay: Cytotoxicity against human BT-549 cells assessed as cell growth inhibition; assay type: functional, cell-based
# MDA-MB-231 = assay: Cytotoxicity against human MDA-MB-231 cells assessed as cell growth inhibition; assay type: functional, cell-based
# UO-31 = assay: Cytotoxicity against human UO-31 cells assessed as cell growth inhibition; assay type: functional, cell-based
# Hs-578T = assay: Cytotoxicity against human Hs-578T cells assessed as cell growth inhibition; assay type: functional, cell-based
# NCI-H460 = assay: Cytotoxicity against human NCI-H460 cells assessed as cell growth inhibition; assay type: functional, cell-based
# MCF7 = assay: Cytotoxicity against human MCF7 cells assessed as cell growth inhibition; assay type: functional, cell-based
# SK-MEL-2 = assay: Cytotoxicity against human SK-MEL-2 cells assessed as cell growth inhibition; assay type: functional, cell-based
# SNB-19 = assay: Cytotoxicity against human SNB-19 cells assessed as cell growth inhibition; assay type: functional, cell-based
# [5] = Selectivity index, ratio of IC50 for cytotoxicity against human hTERT-HME1 cells to IC50 for cytotoxicity against human BT-549 cells
# OVCAR-8 = assay: Cytotoxicity against human OVCAR-8 cells assessed as cell growth inhibition; assay type: functional, cell-based
# RPMI-8226 = assay: Cytotoxicity against human RPMI-8226 cells assessed as cell growth inhibition; assay type: functional, cell-based
# HOP-62 = assay: Cytotoxicity against human HOP-62 cells assessed as cell growth inhibition; assay type: functional, cell-based
# M14 = assay: Cytotoxicity against human M14 cells assessed as cell growth inhibition; assay type: functional, cell-based
# UACC-257 = assay: Cytotoxicity against human UACC-257 cells assessed as cell growth inhibition; assay type: functional, cell-based
# NCI-H226 = assay: Cytotoxicity against human NCI-H226 cells assessed as cell growth inhibition; assay type: functional, cell-based
# SF-268 = assay: Cytotoxicity against human SF-268 cells assessed as cell growth inhibition; assay type: functional, cell-based
# T47D = assay: Cytotoxicity against human T47D cells assessed as cell growth inhibition; assay type: functional, cell-based
# K562 = assay: Cytotoxicity against human K562 cells assessed as cell growth inhibition; assay type: functional, cell-based
# [6] = Cytotoxicity against human hTERT-HME1 cells assessed as cell growth inhibition; assay type: toxicity, cell-based
# A549 = assay: Cytotoxicity against human A549 cells assessed as cell growth inhibition; assay type: functional, cell-based
# SN12C = assay: Cytotoxicity against human SN12C cells assessed as cell growth inhibition; assay type: functional, cell-based
# OVCAR-5 = assay: Cytotoxicity against human OVCAR-5 cells assessed as cell growth inhibition; assay type: functional, cell-based
# NCI-H322M = assay: Cytotoxicity against human NCI-H322M cells assessed as cell growth inhibition; assay type: functional, cell-based
# HT-29 [7] = assay: Cytotoxicity against human HT-29 cells assessed as cell growth inhibition; assay type: functional, cell-based
compound,measurement,setting,value
O=C(Nc1ccc(OS(=O)(=O)c2ccc(F)cc2)cc1)C12CC3CC(CC(C3)C1)C2,IC50,Carbonic anhydrase 9,0.33 µM
same,IC50,NCI-H23,7.71 µM
same,IC50,NCI/ADR-RES,0.94 µM
same,IC50,SK-OV-3,7.83 µM
same,IC50,NCI-H522,3.39 µM
same,IC50,LOX IMVI,7.57 µM
same,IC50,UACC-62,3.14 µM
same,inhibition (INH),HT-29 [1],63.5%
same,IC50,KM12,0.72 µM
same,IC50,SR,3.6 µM
same,IC50,786-0,5.08 µM
same,IC50,HOP-92,1.06 µM
same,IC50,IGROV-1,10.4 µM
same,IC50,HCC 2998,7.95 µM
same,IC50,DU-145,10.6 µM
same,IC50,U-251,19.4 µM
same,IC50,SF-295,1.81 µM
same,IC50,A498,0.28 µM
same,IC50,SK-MEL-28,28.7 µM
same,IC50,Autotaxin,1.07 µM
same,IC50,HCT-15,0.42 µM
same,IC50,PC-3,0.49 µM
same,IC50,OVCAR-4,1.61 µM
same,IC50,HCT-116,0.63 µM
same,IC50,SK-MEL-5,3.61 µM
same,IC50,MDA-MB-468,1.01 µM
same,IC50,HL-60(TB),2.68 µM
same,IC50,Malme-3M,4.07 µM
same,IC50,SNB-75,1.97 µM
same,IC50,ACHN,15.7 µM
same,IC50,COLO 205,0.58 µM
same,IC50,TK-10,20.2 µM
same,IC50,[2],1.13 µM
same,inhibition,HT-29 [3],Active
same,IC50,SF-539,0.76 µM
same,IC50,SW-620,0.41 µM
same,IC50,[4],0.74 µM
same,IC50,MDA-MB-435,7.8 µM
same,IC50,BT-549,4.28 µM
same,IC50,MDA-MB-231,1.87 µM
same,IC50,UO-31,3.43 µM
same,IC50,Hs-578T,2.29 µM
same,IC50,NCI-H460,2.3 µM
same,IC50,MCF7,0.59 µM
same,IC50,SK-MEL-2,10.5 µM
same,IC50,SNB-19,15.7 µM
same,Ratio IC50,[5],11.7
same,IC50,OVCAR-8,12.8 µM
same,IC50,RPMI-8226,2.15 µM
same,IC50,HOP-62,11.1 µM
same,IC50,M14,6.02 µM
same,IC50,UACC-257,3.4 µM
same,IC50,NCI-H226,19.2 µM
same,IC50,SF-268,20.8 µM
same,IC50,T47D,0.83 µM
same,IC50,K562,0.58 µM
same,IC50,[6],> 50 µM
same,IC50,A549,2.3 µM
same,IC50,SN12C,19 µM
same,IC50,OVCAR-5,28.8 µM
same,IC50,NCI-H322M,5.55 µM
same,IC50,HT-29 [7],0.2 µM
